The test system of assay [1] is Primary human PMBC derived macrophages. In words: LPS-induced IL-6 secretion in primary human monocyte-derived macrophages (ELISA). It is filed as cell-based. Also on record: IL-6 Measurements, Mean: unit not given here. Conditions: for IL-6 Measurements, Mean: Donor 1, baseline subtracted values; for IL-6 Measurements Mean (baseline subtracted): LPS 0.15 ng/mL; for LPS-induced IL-6 secretion, in words: primary human monocyte-derived macrophages. The procedure: Isolation of Peripheral Blood Mononuclear Cell (PBMC) Unpurified buffy coats (Research Blood Components) were carefully poured into 50 mL centrifuge tubes and diluted with room temperature Dulbecco's Phosphate Buffered Saline (dPBS) with Calcium and Magnesium (Gibco). Diluted buffy coats were further divided into four total 50 mL centrifuge tubes at 20 mL per tube. Lymphocyte Separation Medium (Corning) was carefully pipetted to the bottom of each centrifuge tube. Mixtures were centrifuged at 850×g for 32 minutes at 20° C. with 0 deceleration and acceleration.
CD14+ cells were selected using EasySep™ Human CD14 Positive Selection Kit II ([…] Technologies). Cells were resuspended in cold EasySep™ Buffer ([…] Technologies) at 1×10^8 cells/mL. A total of 100 uL/mL EasySep™ Human CD14 Positive Selection Cocktail II was added to the cell suspension, mixed, and incubated at room temperature for 10 minutes. A total of 100 uL/mL RapidSpheres were added to the mixture and incubated at room temperature for 3 minutes after mixing, then RoboSep buffer was added to bring up the total volume to 10 mL. The mixture in a 15 mL tube was placed in magnet and incubated at room temperature for 3 minutes. Supernatant was discarded and 10 mL fresh EasySep™ buffer was added to 15 mL tube. The addition of RoboSep buffer, mixing, and discarding of supernatant was repeated two more times.
Negative and positive fractions were centrifuged at 490×g for 5 minutes at 20° C. with acceleration of 9, deceleration of 9, and resuspended in DMEM (Gibco) and 10% Heat Inactivated Fetal Bovine Serum (Atlanta Bio) and Penicillin/Streptomycin. Cells were counted and centrifuged again at 490×g for 5 minutes at 20° C. with acceleration of 9, deceleration of 9. After centrifugation, cell were resuspended in DMEM (Gibco) and 10% Heat Inactivated Fetal Bovine Serum (Atlanta Bio) and Penicillin/Streptomycin containing 500 U/mL […] and plated at 1-2×10^6 cells/mL on 10 cm tissue culture plates. Cells were kept in 37° C., 5% CO2 in between feedings/harvest.
Cells were fed every 3-4 days by removing media and unattached cells, centrifuging at 490×g for 5 minutes at 20 C with acceleration of 9, deceleration of 9, and resuspending in fresh DMEM (Gibco) and 10% Heat Inactivated Fetal Bovine Serum (Atlanta Bio) and Penicillin/Streptomycincontaining 500 U/mL GM-CSF. Resuspended cells were seeded back onto 10 cm tissue culture plates and incubated at 37° C., 5% CO2.
After complete cell attachment, culture supernatant was removed and cultures were washed 1× with 5 mL PBS. A total of 3 mL room temperature Cellstripper was added and cultures were incubated at 37° C., 5% CO2 for approximately 10 minutes until cells were rounded and beginning to detach. Cell scraper was used to completely detach cells from plate. Collected cell were spun down at 490 g for 5 min at room temperature and resuspended in 10% DMSO in Heat Inactivated Fetal Bovine Serum and immediately frozen in −80 C.
Primary human PMBC derived macrophages were seeded on day 0 at 3.0E4 cells per well in 96-well microplates (ThermoFisher) in Dulbecco's Modified Eagle Medium (DMEM) (Gibco) supplemented with penicillin-streptomycin (Hyclone) and 10% heat inactivated fetal bovine serum (HI-FBS) (Atlanta Bio) and incubated overnight at 37° C., 5% CO2. On day 1, cells were washed once with 150 uL per well DPBS (Gibco) and treated with 75 uL of: • a. Amino acid free DMEM (US Biologicals) containing a defined custom amino acid concentration based on the mean physiological concentrations in blood based on values published in the Human Metabolome Database (HMDB), with 6 mM glucose, 1 mM sodium pyruvate, 10 mM HEPES, 0.2% primocin (InVivoGen); or • b. The same medium described above with one amino acid at various concentrations including complete dropout. […]

The test system of assay [2] is human primary hepatocytes. The assay can be described thus: MCP1/CCL2 secretion in primary human hepatocytes exposed to free fatty acids + TNFα (ELISA). It is filed as cell-based. Conditions: primary human hepatocytes from two healthy donors, 24 h. The procedure: Hepatocyte lipotoxicity appears to be a central driver of hepatic cellular injury via oxidative stress and endoplasmic reticulum (ER) stress. The ability of amino acids to influence steatosis (lipid accumulation) and inflammation in hepatocytes was assessed using human primary hepatocytes (Lonza, TRL).
Primary hepatocytes lot nos. from two healthy human donors were seeded on day 0 at density of 6e04 cells in 96 well optical microplates (Thermofisher) in hepatocyte plating media (William's E medium (Gibco) supplemented with 10% heat-inactivated FBS (Atlanta Bio), 2 mM Glutamax (Gibco), 1×ITS plus (R&D systems), and 0.2% Primocin (InVivoGen) and incubated for 6 hours at 37° C., 5% CO2. After 6 hours, cells were washed twice with 150 ul William's E medium and incubated overnight at 37° C., 5% CO2 with serum-free hepatocytes culture media (Hepatocytes defined medium (Corning)) supplemented with 5 ug human recombinant EGF (Corning), 2 mM Glutamax (Gibco), and 1× Penicillin/Streptomycin. On day 1, cells were washed twice with 150 μL per well William's E medium (Gibco) and incubated for 24h in the hepatocyte culture media in the same conditions described above.
On day 2, cells were washed twice with 150 ul DPBS 1× (Gibco) and maintained in amino acid-free WEM (US Biologicals) containing a defined custom amino acid concentration based on the mean physiological concentrations in blood. The values are published in the Human Metabolome Database (Wishart D S, Tzur D, Knox C, et al., HMDB: the Human Metabolome Database. Nucleic Acids Res. 2007 January; 35(Database issue):D521-6. 17202168; which is hereby incorporated by reference in its entirety). This custom media is supplemented with 11 mM Glucose, 0.272 mM Sodium Pyruvate, and a dose curve of defined amino acid compositions (i.e., vehicle, LIVRQ+N-acetylcysteine, LIVRQ, RQ+N-acetylcysteine, N-acetylcysteine alone, LIV, or individually with L-Leucine, L-Isoleucine, L-Valine, L-Arginine, L-Glutamine, and L-Cysteine) at various ranges of concentrations. Cells were maintained in this defined media for 24 hours at 37° C., 5% CO2.
After pre-treatment, cells were exposed to free fatty acids (FFA) at 250 uM with a ratio of 2:1 (Oleate:Palmitate) supplemented with TNF-α (Thermofisher) at 1 ng/ml or vehicle. Cells were incubated with the FFAs mixture and the different amino acids combinations for 24 hours at 37° C., 5% CO2. After 24 hours incubation, media was removed for cytokine analysis and replaced by fresh media containing the same stimulus conditions and amino acid concentrations. Cells were incubated for an additional 48 hours for a total of 72 hours of FFA and TNFα stimulation.
Human CCL2 (MCP-1) was measured by ELISA (Human […] DuoSet ELISA, R&D Systems) at 1/5 or 1/10 dilution in 1× Reagent Diluent (Reagent Ancillary Kit 2, R&D Systems). Data were normalized to the specific per well cell density determined by nuclei count stained by Hoechst 3342 (Life technologies) in the fluorescence microscopy described below.
Background: An ELISA detects its analyte on a solid surface through an enzyme-linked reagent.

For the molecule `CC(=O)N[C@@H](CS)C(=O)O` [N-acetylcysteine], the “IL-6 Measurements, Mean” value in assay [1] (Conc. 5 X) is reported as 308.1772; in assay [1] (Conc. 10 X) it was −121.142; in assay [1] (Conc. 20 X) it was −553.802; in assay [1] (Conc. 40 X) it was −914.194. Also, the “IL-6 Measurements Mean (baseline subtracted)” value (“IL-6 Measurements Mean” for short) in assay [1] (Donor 2, Conc. 0 X (baseline)) is −2.4E−15; in assay [1] (Donor 2, Conc. 20 X), −24.9999; in assay [1] (Donor 3, Conc. 0 X (baseline)) it was −9.5E−15; in assay [1] (Donor 3, Conc. 5 X), −70.3269; in assay [1] (Donor 3, Conc. 10 X) it was −103.586; in assay [1] (Donor 3, Conc. 20 X), −122.656. The “IL-6 Measurements Mean” value in assay [1] (Donor 3, Conc. 40 X) is given as −140.851. Also, the “LPS-induced IL-6 secretion, in words” value in assay [1] (Donor 1, 0.15 ng/mL LPS) was “significantly reduced”; in assay [1] (Donor 2, 0.15 ng/mL LPS), “significantly reduced”; in assay [1] (Donor 3, 0.15 ng/mL LPS) it was “significantly reduced”. Also, the “MCP1/CCL2 secretion, in words” value in assay [2] was “significantly decrease”.

Consider `CC(C)[C@H](N)C(=O)O` [Valine, L-Valine], for which the “IL-6 Measurements, Mean” value in assay [1] (Conc. 4684 μM) was −85.9843; in assay [1] (Conc. 11710 μM) it was −97.25; in assay [1] (Conc. 23420 μM), −106.268. Also, the “IL-6 Measurements Mean” value in assay [1] (Donor 3, Conc. 234 μM (baseline)) is on record as 4.26E−14; in assay [1] (Donor 3, Conc. 4684 μM), −30.0609; in assay [1] (Donor 3, Conc. 11710 μM) it was −43.8022; in assay [1] (Donor 3, Conc. 23420 μM), −29.2004. Also, the “MCP1/CCL2 secretion, in words” value in assay [2] is given as “did not have an effect”.

In the case of `NC(=O)CC[C@H](N)C(=O)O` [Glutamine, L-Glutamine], the “IL-6 Measurements, Mean” value in assay [1] (Conc. 3747 μM) came to 291.5443; in assay [1] (Conc. 11242 μM), 397.1745; in assay [1] (Conc. 22484 μM), 440.1437. Further, the “IL-6 Measurements Mean” value worked out at 3.79E−14 in assay [1] (Donor 3, Conc. 749 μM (baseline)); 25.35 in assay [1] (Donor 3, Conc. 3747 μM); 98.4903 in assay [1] (Donor 3, Conc. 11242 μM); 108.5158 in assay [1] (Donor 3, Conc. 22484 μM). Moreover, the “LPS-induced IL-6 secretion, in words” value in assay [1] (Donor 1, 0.15 ng/mL LPS) was “increased”; in assay [1] (Donor 2, 0.15 ng/mL LPS), “increased”; in assay [1] (Donor 3, 0.15 ng/mL LPS), “significantly increased”. Besides, the “MCP1/CCL2 secretion, in words” value in assay [2] is on record as “significantly decrease”.

Take `CC(C)C[C@H](N)C(=O)O` [Leucine, L-Leucine]: the “IL-6 Measurements, Mean” value in assay [1] (Conc. 3054 μM) is 244.9743; in assay [1] (Conc. 7635 μM) it was −69.9873; in assay [1] (Conc. 15270 μM) it was 84.46. Further, the “LPS-induced IL-6 secretion, in words” value in assay [1] (Donor 2, 0.15 ng/mL LPS) is given as “increased”. In assay [2], the “MCP1/CCL2 secretion, in words” value was “did not have an effect”.

As for `CC[C@H](C)[C@H](N)C(=O)O` [Isoleucine, L-Isoleucine], the entries for the “IL-6 Measurements, Mean” value in assay [1] (Conc. 1328 μM), in assay [1] (Conc. 3320 μM) and in assay [1] (Conc. 6639 μM) were 25.98, −15.8843 and −218.332, respectively. Also, the “IL-6 Measurements Mean” value in assay [1] (Donor 3, Conc. 66 μM (baseline)) was −6.69; in assay [1] (Donor 3, Conc. 1328 μM), −28.9897; in assay [1] (Donor 3, Conc. 6639 μM), −16.3663. Moreover, in assay [2], the “MCP1/CCL2 secretion, in words” value was “did not have an effect”.

Consider `N=C(N)NCCC[C@H](N)C(=O)O` [Arginine, L-Arginine], for which the “LPS-induced IL-6 secretion, in words” value in assay [1] (Donor 1, 0.15 ng/mL LPS) is “increased”. Also, in assay [2], the “MCP1/CCL2 secretion, in words” value is listed as “increased”.

The values are drawn from US20180169045A1, “AMINO ACID COMPOSITIONS AND METHODS FOR THE TREATMENT OF LIVER DISEASES” (AXCELLA HEALTH INC., priority 2016, published 2018).
